{"source": "patent US12642805B2", "about": "“Use of oxygenated cholesterol sulfates for treating at least one of insulin resistance, diabetes, and prediabetes” (Medicis Pharmaceutical Corporation, priority 2020, dated 2026)", "key": {"[1]": {"assay": "quantitative whole body autoradiography tissue distribution, intravenous, Long Evans rats", "assay_type": "in vivo, rat", "conditions": "10 mg/kg intravenous", "method": "(§1) Nine male Sprague Dawley rats (Group 1) were designated for the pharmacokinetic phase, 3 male Sprague Dawley rats (Group 2) for the excretion mass balance phase, and 7 male Sprague Dawley rats (Group 3) and 9 male Long Evans rats (Group 4) for the tissue distribution phase. All animals received a single intravenous dose of [1^4C]-25HC3S at 10 mg/kg and a target radioactivity of 225 μCi/kg. Blood samples were collected from all Group 1 animals at approximately 0.083, 0.25, 0.5, 1, 2, 4, 8, 12, 24, 48, and 72 hours post-dose. Urine and feces were collected from all Group 2 animals periodically through 168 hours post-dose. […] Following blood collection, animals were euthanized by CO2 inhalation and carcasses frozen in a dry ice/hexane bath for processing by quantitative whole body autoradiography. Whole blood, plasma, urine, feces, cage rinse, and cage wash were analyzed for total radioactivity by liquid scintillation counting."}, "[2]": {"assay": "excretion mass balance after single intravenous dose", "assay_type": "in vivo, rat", "conditions": "rats, 10 mg/kg intravenous, over 168 hours", "method": "as §1"}, "[3]": {"assay": "quantitative whole body autoradiography tissue distribution, intravenous, Sprague Dawley rats", "assay_type": "in vivo, rat", "conditions": "10 mg/kg intravenous", "method": "as §1"}, "[4]": {"assay": "plasma pharmacokinetics of radioactivity after single oral (gavage) dose", "assay_type": "in vivo, rat", "conditions": "rats, 75 mg/kg single oral (gavage)", "method": "The terminal elimination phase T1/2 was 27.3 hours."}, "[5]": {"assay": "plasma pharmacokinetics of radioactivity after single intravenous dose", "assay_type": "in vivo, rat", "conditions": "rats, 10 mg/kg single intravenous bolus", "method": "as §1"}, "[6]": {"assay": "quantitative whole body autoradiography tissue distribution, oral, Sprague Dawley rats", "assay_type": "in vivo, rat", "conditions": "75 mg/kg oral", "excerpt": "No [1^4C]-25HC3S-derived radioactivity was detected in the eye (lens)."}, "[7]": {"conditions": "Sprague Dawley, rat, in vivo, iv, 10 mg/kg", "procedure": "Samples were profiled using high performance liquid chromatography with radiodetection and metabolic characterization was performed using mass spectrometry and tandem mass spectrometry analysis."}, "[8]": {"assay": "metabolite profiling of plasma and feces after oral dose", "assay_type": "in vivo, rat", "conditions": "rats 75 mg/kg oral", "excerpt": "Radiolabeled components in plasma and feces extracts were profiled and identified using radio-high performance liquid chromatography (HPLC) and high performance liquid chromatography/mass spectrometry (HPLC/MS) methods."}}}
{"smiles": "C[C@H](CCCC(C)(C)O)[C@H]1CC[C@H]2[C@@H]3CC=C4[14CH2][C@@H](OS(=O)(=O)O)CC[C@]4(C)[C@H]3CC[C@]12C", "note": "[[4-^14C]-25HC3S]", "values": [{"measurement": "time by which plasma and whole blood concentrations were below quantitation limit", "setting": "[1]; Long Evans (pigmented) rats", "result": "≤ 336", "unit": "h"}, {"measurement": "binding to pigmented or non-pigmented skin or the uveal tract", "setting": "[1]; Long Evans rats", "result": "no difference in binding to pigmented or non-pigmented skin or the uveal tract"}, {"measurement": "time by which concentrations in skin and uveal tract tissues were below quantitation limit", "setting": "[1]; Long Evans rats", "result": "≤ 168", "unit": "h"}, {"measurement": "recovered radioactivity in feces", "setting": "[2]", "result": 83.0, "unit": "%"}, {"measurement": "T1/2 in plasma (QWBA phase)", "setting": "[3]", "result": 44.3, "unit": "h"}, {"measurement": "T1/2 in whole blood (QWBA phase)", "setting": "[3]", "result": 52.2, "unit": "h"}, {"measurement": "maximum plasma concentration (QWBA phase)", "setting": "[3]", "result": "12,400 ng-equiv./g"}, {"measurement": "plasma:whole blood AUClast ratio", "setting": "[3]", "result": 0.79}, {"measurement": "tissue:plasma ratio (AUClast), liver", "setting": "[3]", "result": 11.4}, {"measurement": "tissue:plasma ratio (AUClast), small intestine (wall)", "setting": "[3]", "result": 7.44}, {"measurement": "tissues in which radioactivity was detected", "setting": "[3]", "result": "all tissues except the eye (lens)"}, {"measurement": "terminal elimination phase T1/2, plasma", "setting": "[4]", "result": 27.3, "unit": "h"}, {"measurement": "mean plasma C0 (radioactivity)", "setting": "[5]", "result": "25,900 ng-equiv./g"}, {"measurement": "Skin, thymus, prostate, and pituitary tissue concentrations", "setting": "[6]", "result": "< 3000", "unit": "ng equiv./g"}, {"measurement": "Uveal tract and brain concentrations", "setting": "[6]", "result": "approximately 1000 ng equiv./g"}, {"measurement": "tissue Tmax", "setting": "[6]", "result": "≤ 6", "unit": "h"}, {"measurement": "tissue:plasma ratio (AUClast), adrenal gland", "setting": "[6]", "result": 6.64}, {"measurement": "tissue:plasma ratio (AUClast), liver", "setting": "[6]", "result": 6.96}, {"measurement": "tissue:plasma ratio (AUClast), small intestine (wall)", "setting": "[6]", "result": 15.4}, {"measurement": "tissues in which radioactivity was detected", "setting": "[6]", "result": "all tissues except the eye (lens)"}]}
{"smiles": "C[C@H](CCCC(C)(C)O)[C@H]1CC[C@H]2[C@@H]3CC=C4C[C@@H](O)CC[C@]4(C)[C@H]3CC[C@]12C", "note": "[25HC, 25-Hydroxycholesterol, reference compound]", "values": [{"measurement": "detection in plasma, urine, or feces samples", "setting": "[7]", "result": "Neither desmosterol sulfate nor 25-hydroxycholesterol was detected"}, {"measurement": "relative observed intensity (ROI) in plasma", "setting": "[8]; 2 hour post-dose", "result": 37, "unit": "%"}, {"measurement": "% of total dose in feces", "setting": "[8]; pools 0 to 168 hours", "result": 1.9, "unit": "%"}]}
